The subject of this test is PC3, 22Rv1, LNCaP, EPT3-M1-STAT3-GFP cells. In words: MTS cell proliferation assay. In kind it is cell-based, human. The following applies: FIGS. 1-4. The method, then: PC3, 22Rv1, LNCaP, EPT3-M1-STAT3 cells were seeded in 96-well plates for 24 hrs followed by treatment with different doses of 323-1 or 323-2. MTS assay was done after 3 days by adding 10 μl/well CellTiter 96@ AQueous One Solution Reagent (Promega, Madison, Wis., USA) for 4 hrs and the absorbance at 490 nm recorded using a Biotek machine.
To obtain the results shown in FIGS. 1-4, different cell lines were treated with indicated doses of compounds 323-1 and 323-2 for 72 hrs. All data are represented as the average±s.e.m (n=3). Significance was verified by using unpaired two-tailed Student's t-test. *p s 0.05 The total synthesis of compounds 323-1 and 323-2 was conducted as previously reported by Zhang et al. (Journal of the American Chemical Society. 2017; 139: 5558-67). The chemical structures of compounds 323-1 and 323-2 were validated by ^1H NMR, ^13C NMR.
A general note: Tetrazolium dyes change colour on reduction, which living cells bring about.

Turning to `C[C@@H]1CCC(c2cc3c4c(cncc4c2)[C@@H](C)C3)=C1C=O` [323-2, (15S,2R)-Delavatine A], the “Inhibition of proliferation of tumor-initiating and other tumor cells” value is reported as “efficiently inhibit the proliferation”.

The values above are taken from patent US20230286919A1, “ISOQUINOLINE DERIVATIVES FOR USE IN THERAPY” (Vestlandets Innovasjonsselskap AS, priority 2020, published 2023).
